Experimental data as given in patent publication US12668584B2, “Heterocyclic compounds as kinase inhibitors for therapeutic uses” (National Health Research Institutes, priority 2019, dated 2026).

Columns and labels:
Aurora B = Aurora B (Homo sapiens, UniProt Q96GD4); test: HotSpot kinase profiling, Aurora B; type: biochemical; conditions: HotSpot assay, 10 μM ATP; IC50 of kinase divided by that of CSF1R
Method: In vitro profiling of the kinase panel was performed at Reaction Biology Corporation (www.reactionbiology.com, Malvern, PA) using the “HotSpot” assay platform. Briefly, specific kinase/substrate pairs along with required cofactors were prepared in a reaction buffer containing 20 mM Hepes pH 7.5, 10 mM MgCl2, 1 mM EGTA, 0.02% Brij35, 0.02 mg/ml BSA, 0.1 mM NA3VO4, 2 mM DTT, and 1% DMSO. […] 20 minutes later, a mixture of ATP (Sigma, St. Louis MO) and ^33P ATP (Perkin Elmer, Waltham MA) was added to the resulting reaction solution to give a final concentration of 10 μM. The reaction was carried out at room temperature for 120 min., followed by spotting the reaction solution onto P81 ion exchange filter paper (Whatman Inc., Piscataway, NJ). Unbound phosphate was removed by extensive washing filters in 0.75% phosphoric acid. […] Selectivity, expressed as an IC50 ratio, was determined by dividing the IC50 value of a kinase, e.g., Aurora A, by that of CSF1R.

[1] = molecular target: T1, CSF1R kinase (recombinant N-terminal GST-CSF1R, residues L534-C972) (Homo sapiens, UniProt P07333); test: CSF1R Kinase-Glo assay; type: biochemical; conditions: 40 μM ATP, 30° C. 180 min, read-out: Enzymatic Assay CSF1R enzyme IC50
T1 construct: Recombinant N-terminal GST-CSF1R (CSF1R residues L534-C972) containing the CSFIR kinase domain; made in house; host or cells: Sf9 insect cells
T1 sequence (P07333 534-972): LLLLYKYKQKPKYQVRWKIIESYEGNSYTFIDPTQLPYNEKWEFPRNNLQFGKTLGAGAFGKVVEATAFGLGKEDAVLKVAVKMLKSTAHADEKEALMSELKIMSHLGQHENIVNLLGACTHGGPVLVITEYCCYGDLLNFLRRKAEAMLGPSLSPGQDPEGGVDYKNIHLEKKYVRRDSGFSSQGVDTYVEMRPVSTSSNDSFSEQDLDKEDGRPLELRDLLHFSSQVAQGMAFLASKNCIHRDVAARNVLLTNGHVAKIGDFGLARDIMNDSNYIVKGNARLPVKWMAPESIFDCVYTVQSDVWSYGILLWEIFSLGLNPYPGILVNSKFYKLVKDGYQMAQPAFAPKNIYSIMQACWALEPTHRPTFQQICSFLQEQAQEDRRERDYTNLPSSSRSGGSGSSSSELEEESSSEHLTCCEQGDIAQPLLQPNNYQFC
Outline: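 Sf9-expressed, purified GST-CSF1R kinase domain (600 ng) was incubated with compound for 180 min at 30° C. with 40 μM ATP and 20 μM poly(Glu,Tyr) 4:1 at pH 7.4 (Mn2+/Mg2+). Remaining ATP was read by Kinase-Glo Plus luminescence. IC50 was fitted from percentage inhibition versus no-compound controls across a concentration range.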

[2] = molecular target: tyrosine-protein kinase Kit (c-Kit) (Homo sapiens, UniProt P10721); test: HotSpot kinase profiling, c-Kit; type: biochemical; conditions: HotSpot assay, 10 μM ATP; IC50 of kinase divided by that of CSF1R
Sequence of tyrosine-protein kinase Kit (c-Kit) (P10721 26-976): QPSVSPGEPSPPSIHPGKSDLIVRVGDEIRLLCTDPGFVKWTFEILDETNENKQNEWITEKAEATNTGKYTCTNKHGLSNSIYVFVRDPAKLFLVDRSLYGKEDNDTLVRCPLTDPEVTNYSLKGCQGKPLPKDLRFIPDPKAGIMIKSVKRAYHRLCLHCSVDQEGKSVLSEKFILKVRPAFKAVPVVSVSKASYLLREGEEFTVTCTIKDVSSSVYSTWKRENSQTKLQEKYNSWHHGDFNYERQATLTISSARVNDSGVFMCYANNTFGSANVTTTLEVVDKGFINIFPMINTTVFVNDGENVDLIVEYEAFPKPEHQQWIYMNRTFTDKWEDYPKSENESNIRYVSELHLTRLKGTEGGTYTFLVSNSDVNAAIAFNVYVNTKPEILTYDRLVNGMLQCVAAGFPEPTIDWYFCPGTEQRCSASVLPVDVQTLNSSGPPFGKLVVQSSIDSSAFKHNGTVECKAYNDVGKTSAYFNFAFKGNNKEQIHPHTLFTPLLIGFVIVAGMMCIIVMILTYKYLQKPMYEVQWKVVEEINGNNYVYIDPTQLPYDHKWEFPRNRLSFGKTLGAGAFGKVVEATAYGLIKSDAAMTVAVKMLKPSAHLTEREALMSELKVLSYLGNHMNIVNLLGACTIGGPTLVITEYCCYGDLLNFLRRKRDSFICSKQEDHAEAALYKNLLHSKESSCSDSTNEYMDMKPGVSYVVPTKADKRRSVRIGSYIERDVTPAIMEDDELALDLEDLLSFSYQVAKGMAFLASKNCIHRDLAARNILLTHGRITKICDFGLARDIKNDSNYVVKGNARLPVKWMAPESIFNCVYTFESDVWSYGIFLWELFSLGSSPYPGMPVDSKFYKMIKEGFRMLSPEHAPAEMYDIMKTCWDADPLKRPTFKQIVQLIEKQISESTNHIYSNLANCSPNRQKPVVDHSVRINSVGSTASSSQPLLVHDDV
Method: (§1) A study was conducted to determine kinase selectivity of compounds 27 and 67. More specifically, each compound was tested for inhibitory activity of CSF1R kinase, as compared to that of seven other kinases, i.e., Aurora A, Aurora B, tyrosine-protein kinase Kit (c-Kit), fms-like tyrosine kinase 3 (FLT3), platelet-derived growth factor receptor (PDGFR) A, PDGFR B, and discoidin domain receptor tyrosine kinase 1 (DDR1).
(§2) In vitro profiling of the kinase panel was performed at Reaction Biology Corporation (www.reactionbiology.com, Malvern, PA) using the “HotSpot” assay platform. Briefly, specific kinase/substrate pairs along with required cofactors were prepared in a reaction buffer containing 20 mM Hepes pH 7.5, 10 mM MgCl2, 1 mM EGTA, 0.02% Brij35, 0.02 mg/ml BSA, 0.1 mM NA3VO4, 2 mM DTT, and 1% DMSO. Compound 27 or 67 was added. 20 minutes later, a mixture of ATP (Sigma, St. Louis MO) and ^33P ATP (Perkin Elmer, Waltham MA) was added to the resulting reaction solution to give a final concentration of 10 μM. The reaction was carried out at room temperature for 120 min., followed by spotting the reaction solution onto P81 ion exchange filter paper (Whatman Inc., Piscataway, NJ). Unbound phosphate was removed by extensive washing filters in 0.75% phosphoric acid. […] Selectivity, expressed as an IC50 ratio, was determined by dividing the IC50 value of a kinase, e.g., Aurora A, by that of CSF1R.

M-NFS-60 cells = test: MTS cell viability assay, M-NFS-60; type: cell-based; conditions: 72 h, read-out: Cellular Proliferation Assay M-NFS-60 (nM) GI50
Outline: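 Cells seeded 16 h beforehand (10000 M-NFS-60 or 8000 BaF3-CSF1R-1600 per well), then exposed 72 h to test compounds in RPMI1640 with 10% FBS at 37 °C. Viability read by MTS absorbance at 490 nm; GI50 is the concentration giving 50% viability reduction versus DMSO vehicle.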

CSF1R = CSF1R (Homo sapiens, UniProt P07333); test: HotSpot kinase profiling, CSF1R; type: biochemical; conditions: HotSpot assay, 10 μM ATP
Sequence of CSF1R (P07333 20-972): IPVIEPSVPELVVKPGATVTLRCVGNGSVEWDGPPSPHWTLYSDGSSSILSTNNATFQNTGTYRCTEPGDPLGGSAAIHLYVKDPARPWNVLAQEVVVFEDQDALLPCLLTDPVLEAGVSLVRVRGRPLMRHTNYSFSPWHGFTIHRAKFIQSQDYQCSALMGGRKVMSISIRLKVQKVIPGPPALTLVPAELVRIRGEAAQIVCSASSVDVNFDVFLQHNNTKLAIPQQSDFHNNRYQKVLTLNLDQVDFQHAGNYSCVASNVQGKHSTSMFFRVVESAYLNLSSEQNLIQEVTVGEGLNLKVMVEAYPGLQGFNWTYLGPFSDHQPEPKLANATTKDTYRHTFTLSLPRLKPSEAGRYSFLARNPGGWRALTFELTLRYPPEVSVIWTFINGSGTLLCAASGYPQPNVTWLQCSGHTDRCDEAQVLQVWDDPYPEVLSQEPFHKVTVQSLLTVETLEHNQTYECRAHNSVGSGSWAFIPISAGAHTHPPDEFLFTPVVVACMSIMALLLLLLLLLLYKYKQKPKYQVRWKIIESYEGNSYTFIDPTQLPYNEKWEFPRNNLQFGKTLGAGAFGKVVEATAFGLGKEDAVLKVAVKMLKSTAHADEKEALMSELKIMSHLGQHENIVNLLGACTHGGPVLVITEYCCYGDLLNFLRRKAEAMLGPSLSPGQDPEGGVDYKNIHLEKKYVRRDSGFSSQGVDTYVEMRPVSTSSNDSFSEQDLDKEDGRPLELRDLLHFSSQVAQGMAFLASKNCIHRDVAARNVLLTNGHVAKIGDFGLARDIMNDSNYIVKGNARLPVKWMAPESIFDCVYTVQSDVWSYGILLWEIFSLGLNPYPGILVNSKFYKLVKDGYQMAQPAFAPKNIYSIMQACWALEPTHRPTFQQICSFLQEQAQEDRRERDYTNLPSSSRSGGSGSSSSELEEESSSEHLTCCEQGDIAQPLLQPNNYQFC
Method: as §1, §2

[3] = molecular target: discoidin domain receptor tyrosine kinase 1 (DDR1) (Homo sapiens, UniProt Q08345); test: HotSpot kinase profiling, DDR1; type: biochemical; conditions: HotSpot assay, 10 μM ATP; IC50 of kinase divided by that of CSF1R
Sequence of discoidin domain receptor tyrosine kinase 1 (DDR1) (Q08345 19-913): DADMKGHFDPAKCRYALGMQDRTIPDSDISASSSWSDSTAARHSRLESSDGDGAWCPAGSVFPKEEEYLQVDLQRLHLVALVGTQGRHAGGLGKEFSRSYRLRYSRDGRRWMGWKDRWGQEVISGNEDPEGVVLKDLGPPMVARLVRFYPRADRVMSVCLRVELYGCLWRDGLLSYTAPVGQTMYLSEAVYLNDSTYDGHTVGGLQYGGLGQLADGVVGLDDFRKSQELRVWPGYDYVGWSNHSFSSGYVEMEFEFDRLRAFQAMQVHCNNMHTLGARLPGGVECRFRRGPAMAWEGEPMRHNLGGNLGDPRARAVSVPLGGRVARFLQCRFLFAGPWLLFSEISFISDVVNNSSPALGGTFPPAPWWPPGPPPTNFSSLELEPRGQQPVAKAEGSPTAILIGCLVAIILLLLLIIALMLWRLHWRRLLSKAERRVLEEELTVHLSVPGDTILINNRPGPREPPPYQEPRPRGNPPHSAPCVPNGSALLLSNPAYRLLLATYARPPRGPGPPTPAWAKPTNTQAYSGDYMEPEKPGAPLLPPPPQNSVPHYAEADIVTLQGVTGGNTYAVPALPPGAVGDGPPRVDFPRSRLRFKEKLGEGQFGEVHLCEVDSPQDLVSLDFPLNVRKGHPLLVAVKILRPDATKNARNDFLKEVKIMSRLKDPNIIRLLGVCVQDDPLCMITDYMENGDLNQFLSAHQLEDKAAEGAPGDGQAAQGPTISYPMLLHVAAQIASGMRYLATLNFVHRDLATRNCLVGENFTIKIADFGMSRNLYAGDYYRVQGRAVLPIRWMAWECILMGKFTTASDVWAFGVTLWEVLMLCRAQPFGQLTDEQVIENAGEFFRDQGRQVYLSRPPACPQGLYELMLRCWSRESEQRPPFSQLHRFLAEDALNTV
Method: as §1, §2

Sequence of Aurora B (Q96GD4 whole entry, the tested form may be a part): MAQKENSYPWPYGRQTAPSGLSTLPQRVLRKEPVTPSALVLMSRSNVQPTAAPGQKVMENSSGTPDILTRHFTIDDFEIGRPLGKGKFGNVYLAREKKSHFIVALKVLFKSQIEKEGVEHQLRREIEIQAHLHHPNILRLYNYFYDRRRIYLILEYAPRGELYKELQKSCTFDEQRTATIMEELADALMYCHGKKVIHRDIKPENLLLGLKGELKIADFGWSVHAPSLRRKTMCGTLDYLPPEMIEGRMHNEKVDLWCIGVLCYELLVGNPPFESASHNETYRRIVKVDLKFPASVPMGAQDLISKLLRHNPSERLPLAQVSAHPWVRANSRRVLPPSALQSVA

Structure (SMILES)	IC50 ratio Aurora B / CSF1R (Aurora B)	IC50 [1]	IC50 ratio c-Kit / CSF1R [2]	GI50 (M-NFS-60 cells)	IC50 (CSF1R)	IC50 ratio DDR1 / CSF1R [3]
CN(C)c1ccc2c(Oc3ccc(NC(=O)NCc4ccc(C(F)(F)F)nc4)cc3)ncnc2c1 [Compound 27, 1-(4-((7-(dimethylamino)quinazolin-4-yl)oxy)phenyl)-3-((6-(trifluoromethyl)pyridin-3-yl)methyl)urea]	+++ (+++: 1000 > IC50 ratio > 100)	< 20 nM	++ (++: 100 > IC50 ratio > 10)	20 to 100 nM	0.534 nM	+++ (+++: 1000 > IC50 ratio > 100)
CN(C)c1ccc2c(Oc3ccc4c(ccn4C(=O)NCc4ccc(C(F)(F)F)nc4)c3)ncnc2c1 [Compound 67, 5-((7-(dimethylamino)quinazolin-4-yl)oxy)-N-((6-(trifluoromethyl)pyridin-3-yl)methyl)-1H-indole-1-carboxamide]	+++ (+++: 1000 > IC50 ratio > 100)	20 to 100 nM	+++ (+++: 1000 > IC50 ratio > 100)	100 to 1000 nM	5.69 nM	+ (+: 10 > IC50 ratio > 1)
